Positions count from the first letter of the chain named. Numbers in names are those of the source. Where no end group is shown, it is not given here. [ ]: non-standard residue; d: D form. Tyr(3-NO2) = N[C@@H](Cc1ccc(O)c([N+](=O)[O-])c1)C(=O)O; 2Abz = Nc1ccccc1C(=O)O
How the values were obtained:
HpHtrA [1] = biological target: T1, HpHtrA (Helicobacter pylori, UniProt G2J5T2); assay: in vitro E-cadherin (hCdh1) cleavage by HpHtrA (Western blot); type: biochemical; settings: 1 mM; 50 ng hCdh1, 250 ng HpHtrA, 16 h, 37 °C
T1 construct: (HpHtrA, G18-K475, UniProt G2J5T2); GST (N, cleaved yes); made in house; host or cells: E. coli BL21
T1 sequence (G2J5T2 18-475): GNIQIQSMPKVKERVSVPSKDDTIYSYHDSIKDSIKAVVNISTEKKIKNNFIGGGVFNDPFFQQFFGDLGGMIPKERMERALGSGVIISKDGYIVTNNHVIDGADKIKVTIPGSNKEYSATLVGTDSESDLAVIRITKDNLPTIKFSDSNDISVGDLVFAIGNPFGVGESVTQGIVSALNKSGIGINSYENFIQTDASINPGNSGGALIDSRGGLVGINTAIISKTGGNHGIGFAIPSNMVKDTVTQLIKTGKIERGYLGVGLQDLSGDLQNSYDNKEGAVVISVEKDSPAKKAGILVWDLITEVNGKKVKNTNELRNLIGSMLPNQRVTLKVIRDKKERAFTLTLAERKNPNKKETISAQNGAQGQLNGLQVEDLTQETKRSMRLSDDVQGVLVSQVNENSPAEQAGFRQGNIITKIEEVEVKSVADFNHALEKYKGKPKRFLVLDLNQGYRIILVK
Excerpt: (§1) The proteins were separated by SDS-PAGE and visualized by staining with Coomassie Brilliant Blue G250 (Lactan, Vienna, Austria). […] Proteins were separated using SDS-PAGE and blotted onto a nitrocellulose membrane. Human Cdh1 was detected by an antibody recognizing the EC5 domain of hCdh1 (Abcam, Cambridge, UK) and a polyclonal serum was used to detect HpHtrA[22]. Independent experiments were repeated at least three times.

HpHtrA [2] = biological target: T1, HpHtrA; assay: in vitro casein cleavage by HpHtrA (Coomassie SDS-PAGE); type: biochemical; settings: 1 mM; 10 µg casein, 250 ng HpHtrA, 16 h, 37 °C
Excerpt: as §1

[3] = type: physicochemical; settings: 50 mM HEPES pH 7.4, 3 h, 37 °C, absence of protease and presence of HpHtrA SA mutant
Protocol: (§2) Fig. S4. MS analysis of the HpHtrA-mediated cleavage products of 2-Abz-AQRVAF-Y(3-NO2)-NH2. The […]
(§3) ratio in 50 mM HEPES buffer (pH 7.4) for 3 h at 37°C. The samples were desalted by using ZipTip® pipette tips (Merck Millipore) and measured by MALDI -TOF-MS (positive mode). The peptide was found to be stable in the buffer in the absence of the protease as well as in the presence of the HpHtrA […]
(§4) (1 picture or pasted object on this page, not shown here)

HpHtrA wt = biological target: T2, HpHtrA wt (Helicobacter pylori, UniProt G2J5T2); assay: MS analysis of HpHtrA-mediated cleavage of the FRET peptide; type: biochemical; design: (HpHtrA, G18-K475, UniProt G2J5T2); GST (N, cleaved yes); made in house; host or cells: E. coli BL21; settings: peptide:HpHtrA 20:1, 50 mM HEPES pH 7.4, 3 h, 37 °C, MALDI-TOF-MS
T2 sequence (G2J5T2 18-475): T1 sequence (G2J5T2 18-475)
Protocol: as §2, §3, §4

[4] = biological target: the molecule itself; assay: casein zymography + other: non-reducing SDS-PAGE; recombinant HpHtrA proteins in non-reducing sample buffer without beta-mercaptoethanol; SDS-PAGE with 0.1% casein, renatured and developed 24 h at 37 °C, or Coomassie-stained non-reducing SDS-PAGE for detection of multimers
[5] = biological target: the molecule itself; assay: non-reducing SDS-PAGE; HpHtrA wt untreated or with increasing concentrations of ZnCl2 or CuCl2; Coomassie-stained SDS-PAGE under non-reducing conditions

**Q.** Which “effect on HpHtrA-mediated hCdh1 cleavage/fragmentation” value (HpHtrA [1]) does the source give for O=C(O)CN(CCN(CC(=O)O)CC(=O)O)CC(=O)O [EDTA, ethylenediaminetetraacetic acid, reference compound] here?
**A.** Its value is “considerably enhanced”.

**Q.** And the “effect on HtrA-mediated casein degradation” value (HpHtrA [2])?
**A.** The value was “did not alter”.

**Q.** With “2-Abz-AQRVAF-Y(3-NO2)-NH2 ([2Abz]AQRVAF[Tyr(3-NO2)]-NH2; N-terminus assumed; SMILES CC(C)[C@H](NC(=O)[C@H](CCCNC(=N)N)NC(=O)[C@H](CCC(N)=O)NC(=O)[C@H](C)NC(=O)c1ccccc1N)C(=O)N[C@@H](C)C(=O)N[C@@H](Cc1ccccc1)C(=O)N[C@@H](Cc1ccc(O)c([N+](=O)[O-])c1)C(N)=O) [FRET substrate peptide AQRVAF with N-terminal 2-aminobenzoyl fluorophore and C-terminal 3-nitro-tyrosine quencher]” as the molecule, how does the “stability of the peptide” value [3] read?
**A.** The value was “stable”.

**Q.** And the “cleavage of the peptide by HpHtrA” value (HpHtrA wt)?
**A.** Its value is “fully cleaved, preferentially after Val”.

**Q.** For O=C(O)CN(CCOCCOCCN(CC(=O)O)CC(=O)O)CC(=O)O [EGTA, ethylene glycol-bis(β-aminoethyl ether)-N,N,N′,N′-tetraacetic acid, reference compound], which “effect on HpHtrA-mediated hCdh1 cleavage/fragmentation” value (HpHtrA [1]) is on record?
**A.** The value was “considerably enhanced”.

**Q.** And the “effect on HtrA-mediated casein degradation” value (HpHtrA [2])?
**A.** The value was “did not alter”.

**Q.** With [Ca+2].[Cl-].[Cl-] [Ca^++, CaCl2] as the molecule, how does the “effect on HpHtrA-mediated hCdh1 cleavage/fragmentation” value (HpHtrA [1]) read?
**A.** The value was “significantly blocked”.

B1: HpHtrA S164A (enzyme)
chain: T1 sequence (G2J5T2 18-475) with S147A
**Q.** Does B1 bind [4]?
**A.** Result: binds

B2: HtrA wild type (wt) from the H. pylori strain Hp26695 (enzyme)
chain: T1 sequence (G2J5T2 18-475)
notes: also called HpHtrA; HpHtrA wt
**Q.** Does B2 bind [5]?
**A.** Result: binds

— paper PMC7324608 (Scientific Reports, 2020)
